Experimental findings from patent publication US12459931B2, “Benzothiophene derivative regulator, preparation method therefor and use thereof” (Shanghai Hansoh Biomedical Co., Ltd., priority 2019, dated 2025) are described below.

The nature of data set [1]: Stability assay in liver microsome in vitro. In kind it is in vitro ADME, Mouse. How it is done: IV. Stability Assay in Liver Microsome In Vitro
To evaluate the metabolic stability of the compounds of the present invention in liver microsome in vitro.
Formulation of the working solution of the compound: 2 μL of the stock solution of the compound was added to 998 μL of phosphate buffer, and the final concentration was 20 μM.
Formulation of the working solution of the control compound (7-hydroxycoumarin): The formulation was consistent with that of the compound. • 3.2. Formulation of the working solution of liver microsome
78.1 μL of 20 mg/mL microsome was diluted to 2.5 mL with 100 mM phosphate buffer and mixed well, and the final concentration was 0.625 mg/mL. • 3.3. Formulation of NADPH and UDPGA
33.3 mg of NADPH and 25.8 mg of UDPGA were weighed respectively, followed by the addition of 2 mL of 100 mM phosphate buffer. The final concentrations were 20 mM. • 3.4. Formulation of the channel-forming reagent (Alamethicin)
1 mg of Alamethicin was weighed, to which 200 μL of DMSO was added to obtain a 5 mg/mL solution. 10 μL of this solution was added to 990 μL of phosphate buffer (pH 7.4), and the final concentration was 50 μg/mL. • 3.5. Formulation of the reaction stop solution
Stop solution: Cold acetonitrile containing 100 ng/mL labetalol hydrochloride and 400 ng/mL tolbutamide was used as internal standards, and stored in a refrigerator at 2 to 8° C. • 3.6. Incubation procedure
400 μL of the formulated liver microsome, 25 μL of the working solution of the compound […] and 25 μL of Alamethicin (50 μg/mL) were added to a 96-well plate successively, which was then pre-incubated at 37° C. for 10 min. 50 μL of the formulated NADPH/UDPGA was added to initiate the reaction, and the plate was incubated at 37° C. The total volume of the reaction system was 500 μL. The final contents of the components were as follows:
[…] The resulting sample was centrifuged at 4000 g for 10 min, and the supernatant was collected for LC-MS/MS analysis.
For orientation: Liver microsomes are vesicles of endoplasmic reticulum, rich in cytochrome P450 enzymes.

In the next data set the test system is Rats F344. Description: Pharmacodynamic model of active escape experiment in rats. In kind it is in vivo. The settings on record: oral, dose 1 mg/kg, one hour before the test. The procedure:
V. Pharmacodynamic Model of Active Escape Experiment in Rats
To evaluate the anti-schizophrenic effect of the compounds using the pharmacodynamic model of the active escape experiment in rats.
4. Formulation of the Vehicle and Compounds: • 4.1 Vehicle (0.5% CMC-Na+1% Tween80)
A certain mass (such as 1.0 g) of CMC-Na was weighed into a glass bottle, a certain volume (such as 200 mL) of purified water was added, and the resulting mixture was stirred to disperse evenly. 1% (v/v) Tween 80 was added according to the solution volume, and the resulting mixture was stirred overnight to obtain a homogeneous clear solution, which was stored at 2 to 8° C. for later use. • 4.2 Formulation of the compounds: […]
A formula amount of the compound was weighed, followed by the addition of a formula volume of 0.5% CMC-Na+1% Tween 80 solution. The compound solution was formulated before the administration, stored at 2 to 8° C., and used within 4 days.
The day before the compound screening test, a baseline test was performed. The test procedure was the same as 5.1.1 to 5.1.3, and the number of the baseline test was 20. The animals whose number of avoids reached 16 (80%) were grouped according to the number of avoids, 10 animals per group. The first group was administered with the vehicle orally, and the other groups were administered with the corresponding test compounds according to the experimental design. • 5.3 Compound screening test
The compound was administered orally (5 mL/kg) one hour before the test;
The test procedure was the same as 5.1.1 to 5.1.4, and the number of the test was 20.
The following data was collected by the software for data analysis: • Number of avoids of the animal; • Number of escape failures of the animal; • Escape latency of the animal;
All measurement data were expressed as mean±standard error (Mean±SEM), and analyzed by Graphpad 6 statistical software. The difference was considered to be significant when p<0.05.

The next data set addresses 5-HT2A receptor (Homo sapiens (Human), UniProt P28223). Description: Effect on calcium ion mobility in cells stably expressing 5-HT2A receptors (Flp-In-CHO-5HT2A, FLIPR). In kind it is cell-based. The settings on record: Flp-In-CHO-5HT2A cells, 5HT as agonist. The procedure:
To determine the inhibitory effect of the compounds on 5-HT2A receptor.
Probenecid and BSA were added fresh on the day of the experiment.
The calcium signal values were determined by FLIPR. […] The percent inhibition rate and ten-point concentration data were fitted to the parametric nonlinear logistic equation by using GraphPad prism to calculate the IC50 values of the compound.

In another data set the test system is SD rats. Description: Toxicity test by repeated intragastric administration for 14 days in SD rats (with toxicokinetics). The class given is in vivo, Sprague-Dawley (SD) rats. The source says: (§1) VI. Toxicity Test by Repeated Intragastric Administration for 14 Days in SD Rats
(§2) The objective of this study was to investigate the possible toxicity of compounds after repeated intragastric administration to SD rats for 14 days. • 6.2 Experimental materials and instruments: • 6.2.1 Test compound
(§3) Test compound 1: the compound of Example 42. • 6.2.2 Vehicle:
(§4) Name: 0.5% CMC-Na (1% tween80) aqueous solution • 6.2.3 Animal information:
(§5) Species & strain: Sprague-Dawley (SD) rats
(§6) […] were divided into […] according to their sex and body weight. 40 rats were used for toxicology study (groups 1 to 4, 5 rats/sex/group), and 24 rats were used for toxicokinetics study (groups 5 to 8, 3 rats/sex/group). The animals in groups 1 and 5 were intragastrically administered with 0.5% CMC-Na (1% tween80) aqueous solution as the vehicle control groups. The animals in groups 2 and 6, 3 and 7, 4 and 8 were intragastrically administered with the compound of Example 42 at a dose of 2, 10 and 30 mg/kg, respectively. The animals were administered once a day for 14 consecutive days. The administration volumes were 10 mL/kg. During the experiment, clinical observation, body weight, food intake, body temperature, clinicopathological indicators (blood cell count, coagulation function, blood biochemistry) and toxicokinetics were monitored. All animals were euthanized on D15. During the experiment, the animals in groups 1 to 4 were subjected to gross anatomical observation. Histopathological examination was carried out on abnormal tissue and brain, kidney, adrenal gland, lung and bronchi, prostate, testis and epididymis. • 6.4 List of test data • 6.4.1 Dying/death

Assay in data set [2]: as above
The class given is in vivo, Sprague-Dawley (SD) rats. To be noted: both sexes, Sprague-Dawley, rat, in vivo, po; SD rats, intragastric once a day for two weeks; read-out: Maximum tolerated dose (MTD).
From the text: as §1, §2, §3, §4, §5, §6

Setting [3] is: SD rats, 2, 10 or 30 mg/kg, two weeks.

One may read the IC50 as the concentration at which inhibition is half-maximal. The term MTD denotes the highest dose tested that stayed within the study's limit of toxicity.

Chain of 5-HT2A receptor (P28223 whole entry): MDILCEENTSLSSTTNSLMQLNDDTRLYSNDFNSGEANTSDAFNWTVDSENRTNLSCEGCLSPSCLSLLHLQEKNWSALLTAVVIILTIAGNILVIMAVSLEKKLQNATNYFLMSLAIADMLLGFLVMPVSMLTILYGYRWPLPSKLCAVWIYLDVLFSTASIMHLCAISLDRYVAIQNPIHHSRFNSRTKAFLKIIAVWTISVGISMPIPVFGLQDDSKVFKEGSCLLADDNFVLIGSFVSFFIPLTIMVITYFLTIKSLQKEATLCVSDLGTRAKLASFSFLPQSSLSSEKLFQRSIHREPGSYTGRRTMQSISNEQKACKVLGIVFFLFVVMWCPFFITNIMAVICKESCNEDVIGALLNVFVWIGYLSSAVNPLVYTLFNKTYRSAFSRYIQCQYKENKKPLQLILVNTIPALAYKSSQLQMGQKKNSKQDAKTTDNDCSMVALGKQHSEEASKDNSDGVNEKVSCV

`CC(C)(O)C(=O)N[C@H]1CC[C@H](CCN2CCN(c3cccc4sccc34)CC2)CC1` [Example 41, N-(Trans-4-(2-(4-(benzo[b]thiophen-4-yl)piperazin-1-yl)ethyl)cyclohexyl)-2-hydroxy-2-methylpropanamide]: in data set [1] (CD-1, liver microsomes, pH 7.4, Mouse liver microsome 0.5 mg/mL, compound 1 μM, NADPH/UDPGA, read-out: Half life (t1/2)), the half-life at 1 μM is 2.72 h. For the same compound, the microsomal CLint at 1 μM in data set [1] (CD-1, liver microsomes, pH 7.4, Mouse liver microsome, note: Slow <8.8, Rapid >48.0, read-out: Intrinsic clearance rate (CLint)) is 21.3 µL/min/mg. Further, in data set [1] (Mouse liver microsome, 120 min), the “Remaining (%, 120 min)” value turned out to be 80.6%.

Regarding `O=C(N[C@H]1CC[C@H](CCN2CCN(c3cccc4sccc34)CC2)CC1)C1(O)CC1` [Example 42, N-(Trans-4-(2-(4-(benzo[b]thiophen-4-yl)piperazin-1-yl)ethyl)cyclohexyl)-1-hydroxycyclopropane-1-carboxamide], in the data set on Rats F344, the CAR value is reported as 46.5% and the EF is recorded as 0%. The concentration for half-maximal inhibition (IC50) at 5-HT2A receptor stood at 3.42 nM. Further, in the data set with SD rats (setting [3]), the “Main target organs for toxicity” value was “the lungs and adrenal glands”; the “Main toxic responses: blood counts” value is “WBC, Lymph, Retic and PLT are decreased”; the “Main toxic responses: body weight, food intake and body temperature” value was “body weight, food intake and body temperature are decreased”; the “Main toxic responses: coagulation function” value was “FIB wis decreased, and APTT is shortened”. Further, in the data set with SD rats (SD rats, 14 days intragastric, 2, 10 or 30 mg/kg), the Accumulation result is “no accumulation”. In addition, in the data set on SD rats (SD rats, female and male, D1 and D14), the “Average exposure versus dose” value was “increased with the increase of the dose”. Also, the maximal tolerated dose (MTD) at 14 days in data set [2] came to 30 mg/kg.
